The values below are quoted from earlier work in patent US20250339398A1, “TREATMENT OF SLEEP DISTRUBANCES IN AUTISM SPECTRUM DISORDER PATIENTS” (Vanda Pharmaceuticals Inc., priority 2021, published 2025).

One data set addresses T1, MT2 receptor (Homo sapiens, UniProt P49286).
T1 sequence (P49286 1-362): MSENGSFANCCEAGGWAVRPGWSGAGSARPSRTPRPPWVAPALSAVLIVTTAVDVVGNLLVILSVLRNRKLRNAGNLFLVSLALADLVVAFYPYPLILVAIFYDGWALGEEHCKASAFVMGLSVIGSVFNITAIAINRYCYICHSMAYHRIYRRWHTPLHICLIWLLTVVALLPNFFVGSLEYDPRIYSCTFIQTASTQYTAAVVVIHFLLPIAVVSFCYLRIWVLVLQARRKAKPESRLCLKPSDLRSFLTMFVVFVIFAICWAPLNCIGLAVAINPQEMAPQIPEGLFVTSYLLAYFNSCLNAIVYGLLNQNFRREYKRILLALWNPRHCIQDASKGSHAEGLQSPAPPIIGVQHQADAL
As to conditions: MT2 receptor versus MT1 receptor.

The conditions of data set [1]: previous clinical studies in healthy volunteers, primary insomnia, Non-24, pediatric SMS.

Take `CCC(=O)NC[C@@H]1C[C@H]1c1cccc2c1CCO2` [Tasimelteon, tasimelteon]: on MT2 receptor, the “affinity for the MT2 receptor relative to the MT1 receptor” value is “greater affinity for the MT2 receptor than the MT1 receptor”. For the same molecule, the linearity of pharmacokinetics entry (doses ranging from 3 mg to 300 mg) is on record as “linear”. The absolute bioavailability (in vivo) is reported as 38%. Also, the safety and tolerability result in data set [1] was “safe and well-tolerated”.
